Assay results from PubChem BioAssay AID1963448 (Molecular Pharmacology Branch, DTP, NCI, 2024).
pIC50: −log10 of the molar value.

Test system: 616215-338-R-J1-PDC complex spheroid growth, % test/control
Assay: Anticancer human tumor 616215-338-R-J1-PDC patient-derived colon adenocarcinoma cell line growth inhibition [Asc]
Details: for pIC50: curve of first compound; for viability, T/C: stronger effect = lower value
Method in brief: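 Concentration series start at each agent's clinical Cmax, or at 10 microM when none is established, and drop in half-log steps; agents are applied alone or together to complex spheroids built with HUVEC and hMSC.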
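Note: spheroids exposed to agents for seven days before readout.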
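Throughout, for viability, T/C: 100% = DMSO vehicle control viability.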

Cc1nc(N2CCC3(CC2)COC(C)C3N)c(CO)nc1Sc1ccnc(N)c1Cl (configuration not stated) + CNC(C)C(=O)NC1CN(S(=O)(=O)c2cccc(S(=O)(=O)N3CCC4CCC(C(=O)NC(c5ccccc5)c5ccccc5)N4C(=O)C(NC(=O)C(C)NC)C3)c2)CCC2CCC(C(=O)NC(c3ccccc3)c3ccccc3)N2C1=O
pIC50 (second compound 0.00316 µM): 6.01 | pIC50 (second compound 0.01 µM): 6.27 | pIC50 (second compound 0.0316 µM): 5.97 | pIC50 (second compound 0.1 µM): 6.11 | pIC50 (second compound 0.316 µM): 6.28 | pIC50 (second compound 1 µM): 5.75 | viability, T/C (second compound 0.00316 µM, first compound 0.00949 µM): 96.8% | viability, T/C (second compound 0.00316 µM, first compound 0.03 µM): 104% | viability, T/C (second compound 0.00316 µM, first compound 0.0949 µM): 89.7% | viability, T/C (second compound 0.00316 µM, first compound 0.3 µM): 99.3% | viability, T/C (second compound 0.00316 µM, first compound 0.949 µM): 50.8% | viability, T/C (second compound 0.00316 µM, first compound 3 µM): 8.66% | viability, T/C (second compound 0.01 µM, first compound 0.00949 µM): 87.2% | viability, T/C (second compound 0.01 µM, first compound 0.03 µM): 94.1% | viability, T/C (second compound 0.01 µM, first compound 0.0949 µM): 99.7% | viability, T/C (second compound 0.01 µM, first compound 0.3 µM): 85.3% | viability, T/C (second compound 0.01 µM, first compound 0.949 µM): 14.7% | viability, T/C (second compound 0.01 µM, first compound 3 µM): 7.72% | viability, T/C (second compound 0.0316 µM, first compound 0.00949 µM): 99.4% | viability, T/C (second compound 0.0316 µM, first compound 0.03 µM): 68.4% | viability, T/C (second compound 0.0316 µM, first compound 0.0949 µM): 104% | viability, T/C (second compound 0.0316 µM, first compound 0.3 µM): 98.4% | viability, T/C (second compound 0.0316 µM, first compound 0.949 µM): 54.9% | viability, T/C (second compound 0.0316 µM, first compound 3 µM): 11.4% | viability, T/C (second compound 0.1 µM, first compound 0.00949 µM): 103% | viability, T/C (second compound 0.1 µM, first compound 0.03 µM): 85.1% | viability, T/C (second compound 0.1 µM, first compound 0.0949 µM): 94% | viability, T/C (second compound 0.1 µM, first compound 0.3 µM): 115% | viability, T/C (second compound 0.1 µM, first compound 0.949 µM): 40.3% | viability, T/C (second compound 0.1 µM, first compound 3 µM): 9.21% | viability, T/C (second compound 0.316 µM, first compound 0.00949 µM): 92.2% | viability, T/C (second compound 0.316 µM, first compound 0.03 µM): 78.3% | viability, T/C (second compound 0.316 µM, first compound 0.0949 µM): 98.2% | viability, T/C (second compound 0.316 µM, first compound 0.3 µM): 68.3% | viability, T/C (second compound 0.316 µM, first compound 0.949 µM): 29.9% | viability, T/C (second compound 0.316 µM, first compound 3 µM): 11.6% | viability, T/C (second compound 1 µM, first compound 0.00949 µM): 83.1% | viability, T/C (second compound 1 µM, first compound 0.03 µM): 88.3% | viability, T/C (second compound 1 µM, first compound 0.0949 µM): 103% | viability, T/C (second compound 1 µM, first compound 0.3 µM): 92.5% | viability, T/C (second compound 1 µM, first compound 0.949 µM): 101% | viability, T/C (second compound 1 µM, first compound 3 µM): 12.8%
